# Patent US7041461B2 (H. Lundbeck A/S, priority 1998, dated 2006)
# Entries after “also recorded” stand apart in the source; their conditions may differ. Read-outs that look alike come from different tables or passages of the source. Non-standard residues stand in square brackets, D forms with d. Residues, ends and D or L forms follow the SMILES beside them. No end group written: not given here. NMeF = CN[C@@H](Cc1ccccc1)C(=O)O
# B1: CCK: unrelated neuropeptide (peptide, UniProt P06307 21-115, looked up)
# Cholecystokinin: QPVPPADPAGSGLQRAEEAPRRQLRVSQRTDGESRAHLGALLARYIQQARKAPSGRMSIVKNLQNLDPSHRISDRDYMGWMDFGRRSAEEYEYPS
# modifications: Cholecystokinin
# notes: unrelated neuropeptide
# How the values were obtained:
# [1] = target: rat spinal cord membrane receptor; experiment: Radioligand binding to rat spinal cord membranes; conditions: * marks difference from NPFF1
# Method: (§1) Transfected cells from culture flasks are scraped into 5 ml of 20 mM Tris-HCl, 5 mM EDTA, pH 7.5, and lysed by sonication. The cell lysates are centrifuged at 1000 rpm for 5 min. at 4° C., and the supernatant is centrifuged at 30,000× g for 20 min. at 4° C. […] Optimal membrane suspension dilutions, defined as the protein concentration required to bind less than 10% of the added radioligand, are added to 96-well polpropylene microtiter plates containing ^3H-labeled compound, unlabeled compounds, and binding buffer to a final volume of 250 μl. In equilibrium saturation binding assays membrane preparations are incubated in the presence of increasing concentrations of [^3H]-labeled compound.
# (§2) Competition assay: 50 pM radioligand, 10–12 points. Binding reaction mixtures are incubated for 2 hr at 25° C., and the reaction stopped by filtration through a double layer of GF filters treated with 0.1% polyethyleneimine, using a cell harvester. Wash buffer: 50 mM Tris-HCl, 0.1% BSA. Radioactivity may be measured by scintillation counting and data are analyzed by a computerized non-linear regression program. Non-specific binding is defined as the amount of radioactivity remaining after incubation of membrane protein in the presence of 1 μM final concentration […]. Protein concentration may be measured by the Bradford method using Bio-Rad Reagent, with bovine serum albumin as a standard.
# The binding profile of rat NPFF1 was compared to that of rat spinal cord membranes. […] (See * Table 2).
# NPFF receptors = conditions: at a concentration of 10 μM; spinal cord membranes; cited from earlier work
# NPFF2 (hNPFF2) = target: T1, NPFF2 (hNPFF2) (Homo sapiens, UniProt Q9Y5X5); experiment: Voltage-clamp electrophysiology in Xenopus oocytes expressing NPFF2 (NPFF-like) and chimeric Gαq/z; type: cell-based; conditions: 1 μM; oocytes with NPFF2 (NPFF-like) mRNA and Gαq/z; −80 mV
# T1 construct: BO89, was determined to be a full length clone with no point mutations; expressed in transfected cells; host or cells: Xenopus laevis oocytes injected with synthetic mRNA
# T1 sequence (Q9Y5X5 103-522): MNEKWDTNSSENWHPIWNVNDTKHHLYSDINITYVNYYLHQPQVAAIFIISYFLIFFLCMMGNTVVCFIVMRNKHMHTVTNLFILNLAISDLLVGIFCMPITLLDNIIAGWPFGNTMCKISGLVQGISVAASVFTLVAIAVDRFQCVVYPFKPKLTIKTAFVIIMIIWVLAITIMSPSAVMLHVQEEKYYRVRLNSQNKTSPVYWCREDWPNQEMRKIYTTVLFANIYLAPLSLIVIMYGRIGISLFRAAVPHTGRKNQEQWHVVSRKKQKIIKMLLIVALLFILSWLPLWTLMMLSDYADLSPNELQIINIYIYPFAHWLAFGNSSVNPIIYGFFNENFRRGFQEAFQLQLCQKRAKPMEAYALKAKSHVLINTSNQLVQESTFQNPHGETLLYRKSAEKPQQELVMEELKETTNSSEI
# Method: Electrophysiological responses in voltage-clamped oocytes expressing NPFF2 mRNA. […] Oocytes were clamped at a holding potential of −80 mV.
# For expression of NPFF2, mRNA transcripts were generated as described for NPFF1, using PCR products from ligation reactions or linearized DNA from B089 as DNA templates. Oocytes were injected with 5–50 ng NPFF2 mRNA and incubated as previously described.
# (§3) Oocytes were harvested from Xenopus laevis and injected with mRNA transcripts as previously described (Quick and Lester, 1994; Smith et al., 1997). […] Three to eight hours prior to recording, oocytes were injected with 500 pg Gαq/z mRNA in order to observe coupling to Ca^++ activated Cl^− currents. Dual electrode voltage clamp (Axon Instruments Inc.) was performed using 3 M KCl-filled glass microelectrodes having resistances of 1–2 Mohm. Unless otherwise specified, oocytes were voltage clamped at a holding potential of −80 mV. During recordings, oocytes were bathed in continuously flowing (1–3 ml/min) medium containing 96 mM NaCl, 2 mM KCl, 1.8 mM CaCl2, 1 mM MgCl2, and 5 mM HEPES, pH 7.5 (ND96). Drugs were applied either by local perfusion from a […] glass capillary tube fixed at a distance of 0.5 mm from the oocyte, or by switching from a series of gravity fed perfusion lines.
# [2] = target: T2, cloned rat NPFF1 receptor (Rattus norvegicus, UniProt Q9EP86); experiment: Radioligand binding to cloned rat NPFF1 receptor, membranes of transiently transfected COS-7 cells
# T2 construct: expressed in transfected cells; host or cells: COS-7 cells, transient; membranes
# T2 sequence (Q9EP86 whole entry): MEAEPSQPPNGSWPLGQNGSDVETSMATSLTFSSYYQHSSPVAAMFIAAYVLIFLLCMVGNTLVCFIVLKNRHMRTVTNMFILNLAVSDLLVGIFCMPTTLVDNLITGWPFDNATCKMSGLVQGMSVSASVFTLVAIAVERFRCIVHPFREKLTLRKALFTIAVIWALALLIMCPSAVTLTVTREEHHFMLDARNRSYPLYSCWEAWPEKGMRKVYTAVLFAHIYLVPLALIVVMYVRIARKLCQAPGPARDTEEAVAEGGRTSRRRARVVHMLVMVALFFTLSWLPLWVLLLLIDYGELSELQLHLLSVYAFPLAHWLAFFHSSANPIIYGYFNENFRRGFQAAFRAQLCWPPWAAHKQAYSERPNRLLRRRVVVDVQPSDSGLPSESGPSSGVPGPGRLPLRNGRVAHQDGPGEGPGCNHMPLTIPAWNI
# Method: as §1, with “[…],” for “are added to 96-well polpropylene microtiter plates containing ^3H-labeled compound,”
# as §2
# Cos-7 cells transiently expressing the gene encoding the novel rat NPFF1 receptor were used for pharmacological evaluation. […]
# SNORF2 (NPFF1) = target: T3, SNORF2 (NPFF1) (Rattus norvegicus, UniProt Q9EP86); experiment: Voltage-clamp electrophysiology in Xenopus oocytes expressing SNORF2 (NPFF1) and chimeric Gαq/z; type: cell-based; conditions: for inward current response: 1 μM, holding potential −80 mV; for activation of oocytes injected with SNORF2 synthetic RNA: unrelated neuropeptides and neurotransmitters, concentration not given
# T3 construct: from linearized plasmids or PCR products containing the complete coding region of the genes; expressed in transfected cells; host or cells: Xenopus laevis oocytes injected with synthetic RNA
# T3 sequence (Q9EP86 whole entry): as above
# Method: as §3
# Heterologous expression of GPCRs in Xenopus oocytes has been widely used to determine the identity of signaling pathways activated by agonist stimulation (Gundersen et al., 1983; Takahashi et al., 1987). Activation of the phospholipase C (PLC) pathway is assayed by applying test compound in ND96 solution to oocytes previously injected with mRNA for the mammalian receptor and observing inward currents at a holding potential of −80 mV. The appearance of currents that reverse at −25 mV and display other properties of the Ca^++-activated Cl^− (chloride) channel is indicative of mammalian receptor-activation of PLC and release of IP3 and intracellular Ca^++.
# Control oocytes receiving only G-protein synthetic RNA were unresponsive to these peptides. […] Similarly, SNORF2-like was renamed NPFF-like.
# NPFF-1 receptor = target: T4, NPFF-1 receptor (Rattus norvegicus, UniProt Q9EP86); experiment: Total inositol phosphate release in transiently transfected Cos-7 cells; type: cell-based
# T4 construct: expressed in transfected cells; host or cells: Cos-7 cells, transient, intact cells
# T4 sequence (Q9EP86 whole entry): as above
# [3] = competition of [125I]D-Tyr-NPFF binding, transiently transfected COS-7 membranes
# [4] = competition of [125I]D-Tyr-NPFF binding, transiently transfected COS-7 membranes, read-out: pKi for cloned rat NPFF1 receptor binding in COS-7 cells, MEAN (converted)
molecule,measurement,setting,value
substance P,"pKi for rat spinal cord membrane receptor binding, MEAN",[1],5.000
same,inhibition of [125I](1DMe)Y8Fa binding,NPFF receptors,No inhibition
neurokinin A: unrelated neuropeptide,inward current response,NPFF2 (hNPFF2),failed to activate responses; also recorded: no response is observed
N=C(N)NCCC[C@H](N)C(=O)O [L-arginine],"pKi for rat spinal cord membrane receptor binding, MEAN",[1],5.000
same,"pKi for cloned rat NPFF1 receptor binding in COS-7 cells, MEAN",[2]; [3],5.000
TEPGLEEVGEIEQKQLQ [nocistatin],"pKi for rat spinal cord membrane receptor binding, MEAN",[1],5.000
CSCC[C@H](NC(=O)[C@@H]1CCCN1)C(=O)N[C@@H](CCCNC(=N)N)C(=O)N[C@@H](Cc1ccccc1)C(N)=O [PMRFa] (H-PMRF-NH2; N-terminus assumed),Ki,[2]; [4],2.82 nM
CN1CC[C@]23c4c5ccc(O)c4O[C@H]2[C@@H](O)C=C[C@H]3[C@H]1C5 [morphine],inhibition of [125I](1DMe)Y8Fa binding,NPFF receptors,No inhibition
C[C@@H]1CN([C@H]2CC[C@](C#N)(c3ccc(F)cc3)CC2)CC[C@]1(C(=O)O)c1ccccc1 [levocabastine],"pKi for rat spinal cord membrane receptor binding, MEAN",[1],5.000
same,"pKi for cloned rat NPFF1 receptor binding in COS-7 cells, MEAN",[2]; [3],5.000
AGEGLSSPYWSLAAPQRF-NH2 [[Y^9]A18Fa],inward current response,SNORF2 (NPFF1); oocytes with SNORF2 and Gαq/z,displayed activity
same,Ki,[2]; [4],27.7 nM
N=C(N)NCCC[C@@H](N)C(=O)O [D-arginine],"pKi for rat spinal cord membrane receptor binding, MEAN",[1],5.000
same,"pKi for cloned rat NPFF1 receptor binding in COS-7 cells, MEAN",[2]; [3],5.000
NPY: unrelated neuropeptide,inward current response,NPFF2 (hNPFF2),failed to activate responses; also recorded: no response is observed
same,inhibition of [125I](1DMe)Y8Fa binding,NPFF receptors,No inhibition
NCCc1ccc(O)c(O)c1 [dopamine],"pKi for rat spinal cord membrane receptor binding, MEAN",[1],5.000
same,"pKi for cloned rat NPFF1 receptor binding in COS-7 cells, MEAN",[2]; [3],5.000
"orexin A: unrelated neuropeptide (QPLPDCCRQKTCSCRLYELLHGAGNHAAGILTL; ends and bridges not checked; cysteine pairing not given here; UniProt O43612 34-66, looked up)",inward current response,NPFF2 (hNPFF2),failed to activate responses; also recorded: no response is observed
CNCCCN1c2ccccc2CCc2ccccc21 [desipramine],"pKi for rat spinal cord membrane receptor binding, MEAN",[1],5.000
same,"pKi for cloned rat NPFF1 receptor binding in COS-7 cells, MEAN",[2]; [3],5.000
CC(C)C[C@H](NC(=O)[C@@H](N)Cc1ccccc1)C(=O)N[C@@H](Cc1ccccc1)C(=O)N[C@@H](CCC(N)=O)C(=O)N1CCC[C@H]1C(=O)N[C@@H](CCC(N)=O)C(=O)N[C@@H](CCCNC(=N)N)C(=O)N[C@@H](Cc1ccccc1)C(N)=O [NPFF(F-8-Fa)],inward current response,SNORF2 (NPFF1); oocytes with SNORF2 and Gαq/z,robust inward currents
same,threshold for activation of inward current,SNORF2 (NPFF1); oocytes with SNORF2 and Gαq/z,30 nM
same,"Emax, total IP release",NPFF-1 receptor; Cos-7 cells transfected with NPFF1 alone,approximately 200 % basal
same,"Emax, total IP release",NPFF-1 receptor; Cos-7 cells transfected with NPFF1 receptor and Gq/Gz chimera,approximately 1500 % basal
CC(C)C[C@H](NC(=O)[C@H](CCCCN)NC(=O)[C@H](CCCN=C(N)N)NC(=O)[C@H](C)NC(=O)[C@H](CO)NC(=O)[C@H](CCCCN)NC(=O)[C@H](CCCN=C(N)N)NC(=O)[C@H](C)NC(=O)CNC(=O)[C@@H](NC(=O)[C@H](Cc1ccccc1)NC(=O)CNC(=O)CNC(=O)[C@@H](N)Cc1ccccc1)[C@@H](C)O)C(=O)N[C@@H](C)C(=O)N[C@@H](CC(N)=O)C(=O)N[C@@H](CCC(N)=O)C(=O)O [nociceptin],activation of oocytes injected with SNORF2 synthetic RNA,SNORF2 (NPFF1),failed to activate
same,"pKi for rat spinal cord membrane receptor binding, MEAN",[1],5.000
same,"pKi for cloned rat NPFF1 receptor binding in COS-7 cells, MEAN",[2]; [3],5.000
PDVDHVFLRF-NH2 [SchistFLRF],Ki,[2],1100 nM
ibogaine,"pKi for rat spinal cord membrane receptor binding, MEAN",[1],5.000
CC(C)C[C@@H](NC(=O)[C@H](N)Cc1ccc(O)cc1)C(=O)N[C@H](Cc1ccccc1)C(=O)N[C@@H](CCC(N)=O)C(=O)N1CCC[C@H]1C(=O)N[C@@H](CCC(N)=O)C(=O)N[C@@H](CCCNC(=N)N)C(=O)N[C@@H](Cc1ccccc1)C(N)=O [(3D)Y8Fa] (H-[dY][dL][dF]QPQRF-NH2; N-terminus assumed),Ki,[2]; [4],2.38 nM
CCNC(C)Cc1cccc(C(F)(F)F)c1 (centres unmarked) [fenfluramine],"pKi for rat spinal cord membrane receptor binding, MEAN",[1],5.000
same,"pKi for cloned rat NPFF1 receptor binding in COS-7 cells, MEAN",[2]; [3],5.000
melanin concentrating hormone: unrelated neuropeptide,activation of oocytes injected with SNORF2 synthetic RNA,SNORF2 (NPFF1),failed to activate
orexin B: unrelated neuropeptide,activation of oocytes injected with SNORF2 synthetic RNA,SNORF2 (NPFF1),failed to activate
CC(C)C[C@H](NC(=O)[C@H](N)Cc1ccc(O)cc1)C(=O)N(C)[C@@H](Cc1ccccc1)C(=O)N[C@@H](CCC(N)=O)C(=O)N1CCC[C@H]1C(=O)N[C@@H](CCC(N)=O)C(=O)N[C@@H](CCCN=C(N)N)C(=O)N[C@@H](Cc1ccccc1)C(N)=O [(D-Tyr^1-(NMe)Phe^3)NPFF] (H-[dY]L[NMeF]QPQRF-NH2),Ki,[2]; [4],2.82 nM
YLFQPQRF-NH2 [Y8Fa] [listing 1 of 2 here],inward current response,SNORF2 (NPFF1); oocytes with SNORF2 and Gαq/z,displayed activity
a-MSH,"pKi for rat spinal cord membrane receptor binding, MEAN",[1],5.000
COc1ccc2c(c1)[nH]c1c(C)nccc12 [harmine],"pKi for rat spinal cord membrane receptor binding, MEAN",[1],5.000
same,"pKi for cloned rat NPFF1 receptor binding in COS-7 cells, MEAN",[2]; [3],5.000
CSCC[C@H](NC(=O)[C@H](Cc1ccc(OS(=O)(=O)O)cc1)NC(=O)[C@@H](N)CC(=O)O)C(=O)NCC(=O)N[C@@H](Cc1c[nH]c2ccccc12)C(=O)N[C@@H](CCSC)C(=O)N[C@@H](CC(=O)O)C(=O)N[C@@H](Cc1ccccc1)C(N)=O [CCK8],"pKi for rat spinal cord membrane receptor binding, MEAN",[1],5.000
NCCc1c[nH]c2ccc(O)cc12 [5-HT],activation of oocytes injected with SNORF2 synthetic RNA,SNORF2 (NPFF1),failed to activate
Cc1nc2sccn2c(=O)c1CCN1CCC(=C(c2ccc(F)cc2)c2ccc(F)cc2)CC1 [ritanserine],"pKi for rat spinal cord membrane receptor binding, MEAN",[1],5.000
same,"pKi for cloned rat NPFF1 receptor binding in COS-7 cells, MEAN",[2]; [3],5.000
YLFQPQRF-NH2 [Y8Fa] [listing 2 of 2 here],Ki,[2]; [4],4.15 nM
PYY: unrelated neuropeptide,activation of oocytes injected with SNORF2 synthetic RNA,SNORF2 (NPFF1),failed to activate
B1,activation of oocytes injected with SNORF2 synthetic RNA,SNORF2 (NPFF1),failed to activate
